Test results reported in patent US7521478B2, “Total synthesis of myriaporones” (Pharma Mar, S.A.U., priority 2002, dated 2009).
Read-outs that look alike come from different tables or passages of the source.

Key:
Assay type in all cases: cell-based
DU-145 = assay: Inhibition of cell growth by colorimetric SRB assay, DU-145; conditions: Homo sapiens, DU-145, 48 hours exposure; for CC50: cell killing, read-out: LC50 (the source's name); for IC (total growth inhibition): read-out: TGI
Description: (§1) The finality of these assays is to interrupt the growth of a “in vitro” tumor cell culture by means a continued exhibition of the cells to the sample to be testing.
(§2) Inhibition of Cell Growth by Colorimetric Assay.
(§3) A colorimetric type of assay, using sulforhodamine B (SRB) reaction has been adapted for a quantitative measurement of cell growth and viability (following the technique described by P. A. Skehan, et al., J. Natl. CancerInst. 1990, 82, 1107-1112).
(§4) This form of assay employs 96 well cell culture microplates of 9 mm diameter (T. Mosmann et al., J. of Immuological Methods 1983, 65, 55-63; G. T. Faircloth et al., J. of Tissue and Culture Methods 1988, 11, 201-205). Most of the cell lines are obtained from American Type Culture Collection (ATCC) derived from different human cancer types.
(§5) Cells are maintained in RPMI 1640 10% FBS, supplemented with 0.1 g/L penicillin and 0.1 g/L streptomycin sulfate and then incubated at 37° C., 5% CO2 and 98% humidity. For the experiments, cells were harvested from subconfluent cultures using trypsin and resuspended in fresh medium before plating.
(§6) Cells are seeded in 96 well microtiter plates, at 5×10^3 cells per well in aliquots of 195 μL medium, and they are allowed to attach to the plate surface by growing in drug free medium for 18 hours. Afterward, samples are added in aliquots of 5 μL in a ranging from 10 to 10^−8 μg/mL, dissolved in DMSO/EtOH/PBS (0.5:0.5:99). After 48 hours exposure, the antitumor effect are measured by the SRB methodology: cells are fixed by adding 50 μL of cold 50% (wt/vol) trichloroacetic acid (TCA) and incubated for 60 minutes at 4° C. Plates are washed with deionizer water and dried. One hundred μl of SRB solution (0.4% wt/vol in 1% acetic acid) is added to each microliter well and incubated for 10 minutes at room temperature. Unbound SRB is removed by washing with 1% acetic acid. Plates are air dried and bound stain is solubilized with Tris buffer. Optical densities are read on a automated spectrophotometric plate reader at a single wavelength of 490 nm.
(§7) The values for mean +/−SD of data from triplicate wells are calculated. Some parameters for cellular responses can be calculated: GI=growth inhibition, TGI=total growth inhibition (cytostatic effect) and LC=cell killing (cytotoxic effect).

LNCaP = assay: Inhibition of cell growth by colorimetric SRB assay, LN-caP; conditions: Homo sapiens, LN-caP, 48 hours exposure; for CC50: cell killing, read-out: LC50 (the source's name); for IC (total growth inhibition): read-out: TGI
Description: as §1, §2, §3, §4, §5, §6, §7

IGROV = assay: Inhibition of cell growth by colorimetric SRB assay, IGROV; conditions: Homo sapiens, 48 hours exposure; for CC50: cell killing, read-out: LC50 (the source's name); for IC (total growth inhibition): read-out: TGI
Description: as §1, §2, §3, §4, §5, §6, §7

IGROV-ET = assay: Inhibition of cell growth by colorimetric SRB assay, IGROV-ET; conditions: Homo sapiens, IGROV-ET, 48 hours exposure; for CC50: cell killing, read-out: LC50 (the source's name); for IC (total growth inhibition): read-out: TGI
Description: as §1, §2, §3, §4, §5, §6, §7

SK-BR-3 = assay: Inhibition of cell growth by colorimetric SRB assay, SK-BR-3; conditions: SK-BR-3, 48 hours exposure; for GI50 / CC50: Homo sapiens; for CC50: cell killing, read-out: LC50 (the source's name); for TGI: total growth inhibition
Description: as §1, §2, §3, §4, §5, §6, §7

SK-MEL-28 = assay: Inhibition of cell growth by colorimetric SRB assay, MEL-28; conditions: Homo sapiens, SK-MEL-28, MEL-28, 48 hours exposure; for CC50: cell killing, read-out: LC50 (the source's name); for IC (total growth inhibition): read-out: TGI
Description: as §1, §2, §3, §4, §5, §6, §7

A-549 = assay: Inhibition of cell growth by colorimetric SRB assay, A-549; conditions: Homo sapiens, A549, A-549, 48 hours exposure; for CC50: cell killing, read-out: LC50 (the source's name); for IC (total growth inhibition): read-out: TGI
Description: as §1, §2, §3, §4, §5, §6, §7

K-562 = assay: Inhibition of cell growth by colorimetric SRB assay, K-562; conditions: Homo sapiens, K562, K-562, 48 hours exposure; for CC50: cell killing, read-out: LC50 (the source's name); for IC (total growth inhibition): read-out: TGI
Description: as §1, §2, §3, §4, §5, §6, §7

PANC-1 = assay: Inhibition of cell growth by colorimetric SRB assay, PANC-1; conditions: Homo sapiens, PANC-1, 48 hours exposure; for CC50: cell killing, read-out: LC50 (the source's name); for IC (total growth inhibition): read-out: TGI
Description: as §1, §2, §3, §4, §5, §6, §7

HT-29 = assay: Inhibition of cell growth by colorimetric SRB assay, HT-29; conditions: Homo sapiens, HT-29, 48 hours exposure; for CC50: cell killing, read-out: LC50 (the source's name); for IC (total growth inhibition): read-out: TGI
Description: as §1, §2, §3, §4, §5, §6, §7

LoVo = assay: Inhibition of cell growth by colorimetric SRB assay, LOVO; conditions: Homo sapiens, LOVO, 48 hours exposure; for LC50: cell killing, read-out: LC50; for IC (total growth inhibition): read-out: TGI
Description: as §1, §2, §3, §4, §5, §6, §7

LoVo-Dox = assay: Inhibition of cell growth by colorimetric SRB assay, LOVO-DOX; conditions: Homo sapiens, LOVO-DOX, 48 hours exposure; for LC50 (concentration for 50% cell killing): read-out: LC50; for IC (total growth inhibition): read-out: TGI
Description: as §1, §2, §3, §4, §5, §6, §7

HeLa = assay: Inhibition of cell growth by colorimetric SRB assay, HELA; conditions: Homo sapiens, HELA, 48 hours exposure; for CC50: cell killing, read-out: LC50 (the source's name); for IC (total growth inhibition): read-out: TGI
Description: as §1, §2, §3, §4, §5, §6, §7

HeLa-APL = assay: Inhibition of cell growth by colorimetric SRB assay, HELA-APL; conditions: Homo sapiens; for CC50: cell killing, read-out: LC50 (the source's name); for IC (total growth inhibition): read-out: TGI
Description: as §1, §2, §3, §4, §5, §6, §7

[1] = HELA-APL, 48 hours exposure, read-out: GI50

C/C=C\[C@H](C)[C@H]1O[C@@]1(C)[C@@H](O)[C@@H](CO)C(=O)[C@H](CO)[C@@H](O)CC(=O)CC [3a + 4a]
GI50 (DU-145): 0.0631 µM
CC50 (DU-145): 2.03 µM
IC (total growth inhibition) (DU-145): 0.403 µM
GI50 (LNCaP): 0.0819 µM
CC50 (LNCaP): 5.32 µM
IC (total growth inhibition) (LNCaP): 0.553 µM
GI50 (IGROV): 0.073 µM
CC50 (IGROV): 3.92 µM
IC (total growth inhibition) (IGROV): 0.376 µM
GI50 (IGROV-ET): 0.1 µM
CC50 (IGROV-ET): 26.8 µM
IC (total growth inhibition) (IGROV-ET): 1.07 µM
GI50 (SK-BR-3): 0.0303 µM
CC50 (SK-BR-3): 5.34 µM
TGI (SK-BR-3): 4.75E−07 Molar
GI50 (SK-MEL-28): 0.0754 µM
CC50 (SK-MEL-28): 12 µM
IC (total growth inhibition) (SK-MEL-28): 0.832 µM
GI50 (A-549): 0.144 µM
CC50 (A-549): 15.6 µM
IC (total growth inhibition) (A-549): 2.59 µM
GI50 (K-562): 0.521 µM
CC50 (K-562): 8.4 µM
IC (total growth inhibition) (K-562): 1.46 µM
GI50 (PANC-1): 0.0897 µM
CC50 (PANC-1): 26.8 µM
IC (total growth inhibition) (PANC-1): 2.95 µM
GI50 (HT-29): 0.0601 µM
CC50 (HT-29): 26.8 µM
IC (total growth inhibition) (HT-29): 1.18 µM
GI50 (LoVo): 0.0822 µM
LC50 (LoVo): 17.7 µM
IC (total growth inhibition) (LoVo): 1.35 µM
GI50 (LoVo-Dox): 0.152 µM
LC50 (concentration for 50% cell killing) (LoVo-Dox): 26.8 µM
IC (total growth inhibition) (LoVo-Dox): 1.36 µM
GI50 (HeLa): 0.0728 µM
CC50 (HeLa): 7.14 µM
IC (total growth inhibition) (HeLa): 0.55 µM
CC50 (HeLa-APL; HELA-APL, 48 hours exposure): 14.7 µM
GI50 (HeLa-APL; [1]): 0.0733 µM
IC (total growth inhibition) (HeLa-APL; HELA-APL, 48 hours exposure): 0.983 µM

C/C=C\[C@H](C)[C@H]1OC1(C)[C@@H](O)[C@@H](CO)C(=O)[C@H](CO)[C@H](O)CC(=O)CC (some centres unmarked) [3b + 4b]
GI50 (DU-145): 6.52 µM
CC50 (DU-145): 26.8 µM
IC (total growth inhibition) (DU-145): 26.8 µM
GI50 (LNCaP): 9.29 µM
CC50 (LNCaP): 26.8 µM
IC (total growth inhibition) (LNCaP): 26.8 µM
GI50 (IGROV): 5.96 µM
CC50 (IGROV): 26.8 µM
IC (total growth inhibition) (IGROV): 26.8 µM
GI50 (IGROV-ET): 6.55 µM
CC50 (IGROV-ET): 26.8 µM
IC (total growth inhibition) (IGROV-ET): 26.8 µM
GI50 (SK-BR-3): 5.07 µM
CC50 (SK-BR-3): 23.3 µM
TGI (SK-BR-3): 1.09E−05 Molar
GI50 (SK-MEL-28): 5.53 µM
CC50 (SK-MEL-28): 26.8 µM
IC (total growth inhibition) (SK-MEL-28): 26.8 µM
GI50 (A-549): 26.8 µM
CC50 (A-549): 26.8 µM
IC (total growth inhibition) (A-549): 26.8 µM
GI50 (K-562): 14.2 µM
CC50 (K-562): 23.3 µM
IC (total growth inhibition) (K-562): 18.2 µM
GI50 (PANC-1): 26.8 µM
CC50 (PANC-1): 26.8 µM
IC (total growth inhibition) (PANC-1): 26.8 µM
GI50 (HT-29): 22.1 µM
CC50 (HT-29): 26.8 µM
IC (total growth inhibition) (HT-29): 26.8 µM
GI50 (LoVo): 4.81 µM
LC50 (LoVo): 26.8 µM
IC (total growth inhibition) (LoVo): 12.6 µM
GI50 (LoVo-Dox): 9.34 µM
LC50 (concentration for 50% cell killing) (LoVo-Dox): 26.8 µM
IC (total growth inhibition) (LoVo-Dox): 26.8 µM
GI50 (HeLa): 8.73 µM
CC50 (HeLa): 26.8 µM
IC (total growth inhibition) (HeLa): 26.8 µM
CC50 (HeLa-APL; HELA-APL, 48 hours exposure): 26.8 µM
GI50 (HeLa-APL; [1]): 5.18 µM
IC (total growth inhibition) (HeLa-APL; HELA-APL, 48 hours exposure): 26.8 µM

C/C=C\[C@H](C)[C@H]1OC1(C)[C@@H](O[Si](C)(C)C(C)(C)C)[C@@H](COC(C)=O)C(=O)[C@H](CO)[C@@H](O)CC(=O)CC (some centres unmarked) [Compound 46]
GI50 (DU-145): 9.65 µM
CC50 (DU-145): 18.9 µM
IC (total growth inhibition) (DU-145): 18.9 µM
GI50 (LNCaP): 5.24 µM
CC50 (LNCaP): 15.6 µM
IC (total growth inhibition) (LNCaP): 9.06 µM
GI50 (IGROV): 7.74 µM
CC50 (IGROV): 18.9 µM
IC (total growth inhibition) (IGROV): 18.9 µM
GI50 (IGROV-ET): 7.39 µM
CC50 (IGROV-ET): 18.9 µM
IC (total growth inhibition) (IGROV-ET): 18.9 µM
GI50 (SK-MEL-28): 9.89 µM
CC50 (SK-MEL-28): 18.9 µM
IC (total growth inhibition) (SK-MEL-28): 18.9 µM
GI50 (A-549): 13.4 µM
CC50 (A-549): 18.9 µM
IC (total growth inhibition) (A-549): 18.9 µM
GI50 (K-562): 12 µM
CC50 (K-562): 18.9 µM
IC (total growth inhibition) (K-562): 18.9 µM
GI50 (PANC-1): 7.38 µM
CC50 (PANC-1): 18.9 µM
IC (total growth inhibition) (PANC-1): 18.9 µM
GI50 (HT-29): 15 µM
CC50 (HT-29): 18.9 µM
IC (total growth inhibition) (HT-29): 18.9 µM
GI50 (LoVo): 4.37 µM
LC50 (LoVo): 18.9 µM
IC (total growth inhibition) (LoVo): 10 µM
GI50 (LoVo-Dox): 6.15 µM
LC50 (concentration for 50% cell killing) (LoVo-Dox): 18.9 µM
IC (total growth inhibition) (LoVo-Dox): 18.9 µM
GI50 (HeLa): 8.81 µM
CC50 (HeLa): 18.9 µM
IC (total growth inhibition) (HeLa): 18.9 µM
GI50 (HeLa-APL; 48 h): 10.1 µM
CC50 (HeLa-APL; HELA-APL, 48 hours exposure): 18.9 µM
